In PubChem BioAssay (NCI):
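Dose response: 5 concentrations. Exposure: 48 h. Format: 96-well plates. Endpoint: linear interpolation; highest concentration if not reached. Abbreviation: GI50, concentration required for 50% inhibition of growth. Definition used: TGI = concentration required for complete inhibition of growth.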

Experiments:
Assay in all cases: DTP human tumour cell line panel, 48 h
EKVX NSCLC = tested on: EKVX NSCLC
MDA-MB-231 breast = tested on: MDA-MB-231 breast
IGROV1 ovarian = tested on: IGROV1 ovarian
HCT-116 colon = tested on: HCT-116 colon
SF-295 CNS = tested on: SF-295 CNS
HT29 colon = tested on: HT29 colon
MALME-3M melanoma = tested on: MALME-3M melanoma
786-0 renal = tested on: 786-0 renal
M14 melanoma = tested on: M14 melanoma
MCF7 breast = tested on: MCF7 breast
SR leukemia = tested on: SR leukemia
MDA-N = tested on: MDA-N
OVCAR-3 ovarian = tested on: OVCAR-3 ovarian
HL-60(TB) leukemia = tested on: HL-60(TB) leukemia
OVCAR-5 ovarian = tested on: OVCAR-5 ovarian
RXF 393 renal = tested on: RXF 393 renal
RPMI-8226 leukemia = tested on: RPMI-8226 leukemia
NCI-H522 lung = tested on: NCI-H522 lung

| SMILES | TGI (EKVX NSCLC) | TGI (MDA-MB-231 breast) | TGI (IGROV1 ovarian) | TGI (HCT-116 colon) | TGI (SF-295 CNS) | TGI (HT29 colon) | TGI (MALME-3M melanoma) | TGI (786-0 renal) | TGI (M14 melanoma) | TGI (MCF7 breast) | TGI (SR leukemia) | TGI (MDA-N) | TGI (OVCAR-3 ovarian) | TGI (HL-60(TB) leukemia) | TGI (OVCAR-5 ovarian) | TGI (RXF 393 renal) | TGI (RPMI-8226 leukemia) | TGI (NCI-H522 lung) | GI50 (HCT-116 colon) | GI50 (OVCAR-3 ovarian) |
| --- | --- | --- | --- | --- | --- | --- | --- | --- | --- | --- | --- | --- | --- | --- | --- | --- | --- | --- | --- | --- |
| CC1(C)N(OC2CCCCO2)C(c2ccccc2)C(c2ccccc2)=[N+]1[O-] (configuration not stated) | > 100 µM | > 100 µM | > 100 µM | > 100 µM | > 100 µM | > 100 µM | > 100 µM | > 100 µM | > 100 µM | > 100 µM | > 100 µM | > 100 µM | > 100 µM | > 100 µM | > 100 µM | > 100 µM |  |  |  |  |
| OC(c1ccsc1)c1cc2ccccc2s1 (configuration not stated) | > 10 µM | > 10 µM | > 10 µM | > 10 µM | > 10 µM | > 10 µM |  | > 10 µM | > 10 µM | > 10 µM | > 10 µM | > 10 µM | > 10 µM | > 10 µM | > 10 µM | > 10 µM | > 10 µM | > 10 µM |  |  |
| O=C(O)Cn1nnc2c(=O)[nH][nH]c(=O)c21 | > 100 µM | > 100 µM |  | > 100 µM | > 100 µM | > 100 µM | > 100 µM | > 100 µM | > 100 µM | > 100 µM | > 100 µM | > 100 µM | > 100 µM | > 100 µM | > 100 µM |  | > 100 µM |  |  |  |
| Cc1ccc(-c2c(C#N)c(-c3ccc([N+](=O)[O-])cc3)c(C#N)c(=O)n2NS(=O)(=O)c2ccc(C)cc2)cc1 | > 100 µM | > 100 µM | > 100 µM | > 100 µM | > 100 µM | > 100 µM | > 100 µM | > 100 µM | > 100 µM | > 100 µM |  | > 100 µM | > 100 µM | 84.3 µM | > 100 µM | > 100 µM | 47 µM | > 100 µM |  |  |
| COc1ccc(C(=O)/C=C2\c3ccccc3C(=O)N2C)cc1 | > 100 µM | > 100 µM | > 100 µM | > 100 µM | > 100 µM | > 100 µM | > 100 µM | > 100 µM | > 100 µM | > 100 µM | > 100 µM | > 100 µM | > 100 µM |  | > 100 µM | 82.8 µM | > 100 µM | > 100 µM |  |  |
| Cc1c(C)c(S(=O)(=O)N(CCCCCN)OCCCN)c(C)c2c1OC(C)(C)CC2 | 25.3 µM | 31.7 µM | 11 µM | 30 µM | 45.8 µM | 28.7 µM | 28 µM | 29 µM | > 100 µM | > 100 µM |  | 31.1 µM | 19.9 µM | 5.92 µM | > 55.2 µM | 71.9 µM | 18 µM | 13.3 µM |  |  |
| C/C(=N\Nc1nc2ccccc2[nH]1)c1ccncn1 | 43.2 µM | > 100 µM | 43.8 µM | 26.8 µM | > 44.6 µM | > 100 µM | > 100 µM | > 100 µM |  | > 39.2 µM | > 100 µM | > 100 µM | 13 µM | 0.054 µM | > 100 µM |  |  |  |  |  |
| CC(=O)Nc1ccc2c3c(cc(O)c2c1)N(C(=O)CCCC(=O)Nc1ccc2c4c(cc(O)c2c1)N(C(=O)OC(C)(C)C)CC4CCl)CC3CCl (configuration not stated) | > 35.3 µM | 3.74 µM | > 50 µM | > 50 µM | > 42.9 µM | > 13.1 µM | 2.75 µM | > 13.1 µM | 13.2 µM | > 16.3 µM |  | 3.34 µM | 2.89 µM | 1.71 µM | > 15.4 µM | 10.6 µM | > 34.8 µM | 3.85 µM |  |  |
| CC1CC(=O)N2CCCNC2=C1C#N (configuration not stated) | > 100 µM | > 100 µM | > 100 µM | > 100 µM | > 100 µM | > 100 µM | > 100 µM | > 100 µM | > 100 µM | > 100 µM | > 100 µM | > 100 µM | > 100 µM |  |  | > 100 µM | > 100 µM | > 100 µM |  |  |
| CCCCOP(=O)(OCCCC)/C(C#N)=C/c1ccc(C)o1 | > 100 µM | > 100 µM | > 100 µM | > 100 µM | > 100 µM | > 100 µM | 99.2 µM | > 100 µM | 78.5 µM | > 100 µM | > 100 µM | 95.5 µM | 57.6 µM |  | > 100 µM | 86.1 µM | > 100 µM | > 100 µM |  |  |
| COc1ccc(OC)c(C2CCCc3c2cnc2nc(N)nc(N)c32)c1 (configuration not stated) | > 100 µM | > 100 µM | > 100 µM | > 100 µM | > 100 µM | > 100 µM | > 100 µM | > 100 µM | > 100 µM | 0.017 µM | > 100 µM | > 100 µM | > 100 µM | > 100 µM |  |  | > 100 µM | > 100 µM |  |  |
| COc1ccc(C2=NN(C(=O)c3ccccc3)C(O)(c3cc(F)c(Cl)cc3Cl)C2)cc1OC (configuration not stated) | > 100 µM | > 100 µM | > 100 µM | > 100 µM | > 100 µM | > 100 µM | > 100 µM | > 100 µM | > 100 µM | > 100 µM |  | > 100 µM | 69.3 µM | > 100 µM | > 100 µM | 55.5 µM | > 100 µM | > 100 µM |  |  |
| CC(=O)c1c2c(cc3c1CC1(Cc4cc5c(cc4C1=O)CCC5)C3)CCC2 (configuration not stated) | > 100 µM | > 100 µM | > 100 µM | > 100 µM | > 100 µM | > 100 µM | > 100 µM | > 100 µM | > 100 µM | > 100 µM | > 100 µM | > 100 µM | > 100 µM | > 59.4 µM | > 100 µM |  | > 92.9 µM | > 100 µM |  |  |
| COC(=O)c1ccccc1/C=C1\Cc2cc3c(cc2C1=O)CCC3 | > 100 µM | > 100 µM | > 100 µM | > 100 µM | > 100 µM | > 100 µM | > 100 µM | > 100 µM | > 100 µM | > 100 µM | > 100 µM | 78.8 µM | > 100 µM | > 100 µM | > 100 µM |  | > 100 µM | > 100 µM |  |  |
| CCCCCCNC(=O)c1cc(C#Cc2cc(OC)ccc2OC)ccc1OC | > 100 µM | > 100 µM | > 100 µM | > 100 µM | > 100 µM | > 100 µM |  | > 100 µM | > 100 µM | > 100 µM | > 100 µM | > 100 µM | > 100 µM |  | > 100 µM |  | > 100 µM | > 100 µM | 6.9 µM | > 100 µM |
| COCC[N+](CCNC(=O)c1cccc2c(N)c3cccc(C)c3nc12)(CCOC)Cc1ccc([N+](=O)[O-])cc1 | 67.3 µM | 58.8 µM | 33.5 µM | 58 µM | > 100 µM | 76.5 µM |  | > 100 µM | > 100 µM | 89.8 µM | 35.3 µM | > 100 µM | 99.1 µM | 40.1 µM | > 100 µM |  | 27.2 µM | 36.3 µM |  |  |
| Cn1c(=O)cc(NNc2ccc(Br)cc2)[nH]c1=O | 37.5 µM | 27.7 µM | 23.1 µM | 29.3 µM | 26.2 µM | 12.2 µM | 31.4 µM | 21.4 µM | 33.4 µM | 26.8 µM | > 100 µM | 28.6 µM | 14.7 µM | 7.14 µM | 26.2 µM |  | 46 µM |  |  |  |
| O=c1[nH]c(=O)n(C2CC(O)C(COP(=O)(O)OC3CC(n4cc(F)c(=O)[nH]c4=O)OC3COP(=O)(O)OC3CC(n4cc(F)c(=O)[nH]c4=O)OC3COP(=O)(O)OC3CC(n4cc(F)c(=O)[nH]c4=O)OC3COP(=O)(O)OC3CC(n4cc(F)c(=O)[nH]c4=O)OC3COP(=O)(O)OC3CC(n4cc(F)c(=O)[nH]c4=O)OC3COP(=O)(O)OC3CC(n4cc(F)c(=O)[nH]c4=O)OC3COP(=O)(O)OC3CC(n4cc(F)c(=O)[nH]c4=O)OC3COP(=O)(O)OC3CC(n4cc(F)c(=O)[nH]c4=O)OC3COP(=O)(O)OC3CC(n4cc(F)c(=O)[nH]c4=O)OC3CO)O2)cc1F (configuration not stated) | > 50 µM | > 50 µM | > 50 µM | > 50 µM | > 10 µM | > 50 µM |  | > 50 µM | > 50 µM | > 50 µM | > 50 µM | > 50 µM |  | > 50 µM | > 50 µM | > 50 µM | > 50 µM |  |  |  |
| CC/C(Cl)=N\OC(=O)Nc1ccccc1OC(F)(F)F | 15.9 µM | 34.2 µM | 30.8 µM | 27 µM | 33.5 µM | 44.4 µM | 17.6 µM | 23.5 µM | 23.3 µM | > 51.3 µM |  | 22.9 µM | 22.2 µM | 3.6 µM | 36.9 µM | 32.6 µM | 4.12 µM | 2.9 µM |  |  |
| Nc1ncnc2c1ncn2[C@@H]1C[C@H]1CO | > 100 µM | > 100 µM |  | > 100 µM | > 100 µM | > 100 µM | > 100 µM | > 100 µM | > 100 µM | > 100 µM | > 100 µM | > 100 µM | > 100 µM | > 100 µM | > 100 µM |  | > 100 µM | > 100 µM |  |  |
